11 substances from article PMC6381024, “Probing Anti-inflammatory Properties Independent of NF-κB Through Conformational Constraint of Peptide-Based Interleukin-1 Receptor Biased Ligands” (Frontiers in Chemistry, 2019) can be followed below.

One test deals with IL-1β. Nature of the test: qPCR of IL-1β-induced IL-1β expression in HEK-Blue IL-33/IL-1β cells. Format: cell-based, human. Also on record: key to qPCR IL-1β (heatmap grade of inhibition): 0: No effect; No effect 01234 Maximum inhibition/efficacy; No effect 01234 Maximum inhibition/efficacy; No effect 01234 Maximum inhibition/efficacy; 4: Maximum inhibition/efficacy. Particulars: for qPCR IL-1β (heatmap grade of inhibition): HEK-Blue cells, peptide 10^-6 M or Kineret 1.0 mg/mL 30 min, then IL-1β 100 ng/mL 4 h (legend: overnight); for Suppression of IL-1β transcription: HEK blue cells, 10^-6 M pre-treatment, IL-1β stimulation. The method, then: HEK-Blue IL-33/IL-1β cells were purchased from InvivoGen (San Diego, CA) and used at passages under 15. HEK-Blue cells were cultured in DMEM growth medium supplemented with 10% serum, 50 U/mL penicillin, […] streptomycin, […] zeocin, and […] hygromycin. Cells were grown in regular conditions (37°C, 5% CO2). Cells were serum starved overnight and treated with 100 ng/mL IL-1β for 4 h. Cells were pre-incubated for 30 min with peptides 1, 5, or 6 (10^−6M) or Kineret (1.0 mg/mL) prior to the experiments to reach equilibrium (n = 4 each treatment). Cells were harvested and incubated for 5 min in RIBOzol (AMRESCO). RNA was extracted according to manufacturer's protocol and RNA concentration and integrity were measured with a NanoDrop 1,000 spectrophotometer. A total of 500 ng RNA was used to synthetize cDNA using iScript Reverse Transcription SuperMix (Bio-Rad, Hercules, CA). Quantitative gene expression analysis was performed on Stratagene MXPro3000 (Stratagene) with SYBR Green Master Mix (Bio-Rad). Gene expression levels were normalized to 18S universal primer (Ambion Life Technology, Burlington ON, Canada). Genes analyzed include IL1β, IL6, and PTGHS2 [Prostaglandin H synthetase 2 or cyclooxygenase-2 (COX-2)]. Data are representative of 3 experiments (each with n = 4 per treatment group).
Figure 8 The effects of peptides 1, 5, and 6 on the expression of pro-inflammatory genes. HEK-Blue cells were pre-treated with peptides 1, 5, and 6 as above and stimulated with IL-1β overnight. qPCR was performed on cell lysates using 18S rRNA as internal control. Graphs are sorted in columns by gene of interest (COX-2, IL-1β, or IL-6) and rows by peptide configuration [(3R) or (3S)]. Results are representative of an average of 3 independent experiments (each with n = 4 per treatment group) and are expressed as a fold-change of the non-stimulated control: ^*p < 0.05, ^**p < 0.01, ^***p < 0.001, ^****p < 0.0001 compared to group treated only with IL-1β. Treatment groups that are not labeled with asterisks are statistically non-significant compared to group treated only with IL-1β.

In a further test the test system is p38 MAPK. Briefly: IL-1β-induced p38 MAPK phosphorylation, Western blot in RAW Blue cells. Format: cell-based. More on the design: key to Western Blot p38 (heatmap grade of inhibition): 0: No effect; No effect 01234 Maximum inhibition/efficacy; No effect 01234 Maximum inhibition/efficacy; No effect 01234 Maximum inhibition/efficacy; 4: Maximum inhibition/efficacy. As to conditions: for Western Blot p38 (heatmap grade of inhibition): RAW Blue cells, peptide 10^-6 M or Kineret 1.0 mg/mL 30 min, then IL-1β 100 ng/mL 15 min; for Inhibition of IL-1β-induced p38 phosphorylation: RAW-blue cells, 10^-6 M, 30 min, then IL-1β 15 min. The method, then: (§1) RAW Blue cells (Invivogen) were grown under standard conditions (37°C, 5% CO2) and maintained under passage number 15. Cells were equilibrated with 1, 5, or 6 (10^−6M) or Kineret (1.0 mg/mL) for 30 min, after which time they were exposed to IL-1β (100 ng/mL) for 15 min. Cells were harvested and lysed on ice for 30 min using a radioimmunoprecipitation assay buffer (Cell Signaling) supplemented with 1 mM phenylmethylsulfonyl fluoride (PMSF) and cOmplete™ EDTA-free protease inhibitor cocktail (Roche, Mannheim, Germany, prepared according to the manufacturer's instructions). Protein concentrations were determined using a Bradford protein assay (Bio-Rad) on 96-well plates with a microplate reader (EnVision Multilabel reader) measuring OD at […]. Bovine serum albumin serial dilutions were used to generate a standard curve. Lysates were then mixed with 4X reducing sample buffer (Bio-Rad).
(§2) Lysates were loaded (30 μg protein per well) in a 5% acrylamide stacking gel, and samples were electrophoresed in a 12% acrylamide resolving gel for 1.5 h at 120 V, followed by a 1 h transfer onto polyvinylidene difluoride (PDVF) membranes at 100 V. Membranes were blocked and incubated with 1:1,000 dilution of primary antibody and 1:20,000 dilution of secondary antibodies according to the manufacturer's instructions. Antibodies used were for phospho-p38 MAPK (Cell Signaling, #9211), p38 MAPK (Cell Signaling, #9212), SAPK/JNK (Cell Signaling, #9252), phospho-SAPK/JNK (Cell Signaling, #9251), ROCK2 (Thermo Fisher Scientific PA5-21131), phospho-ROCK2 (Thermo Fisher Scientific PA5-34895), and goat anti-rabbit conjugated to horseradish peroxidase (Abcam, ab6721). Membranes were imaged using an Amersham Imager 600 (GE Healthcare) using Clarity Western ECL Substrate (Bio-Rad). The intensity of protein bands was quantified using ImageJ and standardized using total (phosphorylated + non-phosphorylated) protein content. Data are representative of three independent experiments.
(§3) Figure 7 The effects of peptides 1, 5, and 6 on IL-1β-induced phosphorylation of JNK, ROCK2, and p38. Graphical representations of band density analysis of Western Blots, sorted into columns based on protein of interest (JNK, ROCK2, or p38) and rows by peptide configuration [(3R-) or (3S)]. RAW-blue cells were pretreated with peptides 1, 5, 6, Kineret, or vehicle for 30 min and then stimulated with IL-1β for 15 min. Images of representative Western Blots can be found in the Supplementary Figure 1. Results shown are the average of 3 independent experiments: ^*p < 0.05, ^**p < 0.01, ^***p < 0.001, ^****p < 0.0001 compared to group treated only with IL-1β. Treatment groups that are not labeled with asterisks are statistically non-significant compared to group treated only with IL-1β.

The test system of the next test is JNK. Nature of the test: IL-1β-induced JNK phosphorylation, Western blot in RAW Blue cells. In kind it is cell-based. Also on record: key to Western Blot JNK (heatmap grade of inhibition): 0: No effect; No effect 01234 Maximum inhibition/efficacy; No effect 01234 Maximum inhibition/efficacy; No effect 01234 Maximum inhibition/efficacy; 4: Maximum inhibition/efficacy. Particulars: for Western Blot JNK (heatmap grade of inhibition): RAW Blue cells, peptide 10^-6 M or Kineret 1.0 mg/mL 30 min, then IL-1β 100 ng/mL 15 min. The method, then: as §1, §2, §3

The test system of the next test is ROCK2. Briefly: IL-1β-induced ROCK2 phosphorylation, Western blot in RAW Blue cells. Particulars: for Western Blot ROCK2 (heatmap grade of inhibition): RAW Blue cells, peptide 10^-6 M or Kineret 1.0 mg/mL 30 min, then IL-1β 100 ng/mL 15 min. In kind it is cell-based. More on the design: key to Western Blot ROCK2 (heatmap grade of inhibition): 0: No effect; No effect 01234 Maximum inhibition/efficacy; No effect 01234 Maximum inhibition/efficacy; No effect 01234 Maximum inhibition/efficacy; 4: Maximum inhibition/efficacy. On the procedure:
as §1, §2, §3

Setting [1] is: RAW-blue cells, 10^-6 M, 30 min, then IL-1β 15 min.

For the substance “H-D-Arg-D-Tyr-(3S,4R)-Hgl-D-Val-D-Glu-D-Leu-D-Ala-NH2 [[(3S,4R)-Hgl^3]-1]”, the “qPCR IL-1β (heatmap grade of inhibition)” value with IL-1β was 4. Also, in the test with p38 MAPK, the “Western Blot p38 (heatmap grade of inhibition)” value was found to be 3. For the same substance, the “Western Blot JNK (heatmap grade of inhibition)” value with JNK is given as 3. For the same substance, in the test with ROCK2, the “Western Blot ROCK2 (heatmap grade of inhibition)” value amounted to 3.
For the substance “H-D-Arg-D-Tyr-(3R,4S)-Hgl-D-Val-D-Glu-D-Leu-D-Ala-NH2 [[(3R,4S)-Hgl^3]-1]”, the “qPCR IL-1β (heatmap grade of inhibition)” value in the test on IL-1β came out at 4. Moreover, in the test on p38 MAPK, the “Western Blot p38 (heatmap grade of inhibition)” value turned out to be 4 and the “Inhibition of IL-1β-induced p38 phosphorylation” value is listed as “inhibited most effectively”. Moreover, the “Western Blot JNK (heatmap grade of inhibition)” value with JNK amounted to 4. The “Western Blot ROCK2 (heatmap grade of inhibition)” value in the test with ROCK2 amounted to 4.
With “Kineret: FDA-approved recombinant IL-1 receptor antagonist”, the “qPCR IL-1β (heatmap grade of inhibition)” value in the test on IL-1β is given as 4. Also, the “Western Blot p38 (heatmap grade of inhibition)” value in the test on p38 MAPK is 4. Also, the “Western Blot JNK (heatmap grade of inhibition)” value in the test on JNK worked out at 4. Further, the “Western Blot ROCK2 (heatmap grade of inhibition)” value in the test on ROCK2 was 4.
Consider “H-D-Arg-D-Tyr-(S)-Agl-D-Val-D-Glu-D-Leu-D-Ala-NH2 [[(3S)-Agl^3]-1]”, for which, in the test with IL-1β, the “qPCR IL-1β (heatmap grade of inhibition)” value is 4. Moreover, in the test on p38 MAPK, the “Western Blot p38 (heatmap grade of inhibition)” value was determined as 0 and the “Inhibition of IL-1β-induced p38 phosphorylation” value was “inactive”. In addition, the “Western Blot JNK (heatmap grade of inhibition)” value in the test on JNK came to 4. For the same substance, the “Western Blot ROCK2 (heatmap grade of inhibition)” value in the test with ROCK2 is 0.
Turning to “H-D-Arg-D-Tyr-(3R,4R)-Hgl-(S)-Val-D-Glu-D-Leu-D-Ala-NH2 [[(3R,4R)-Hgl^3-(S)-Val^4]-1]”, in the test with IL-1β, the “qPCR IL-1β (heatmap grade of inhibition)” value is recorded as 3. The “Western Blot p38 (heatmap grade of inhibition)” value in the test on p38 MAPK worked out at 3. Further, the “Western Blot JNK (heatmap grade of inhibition)” value in the test with JNK came out at 1. For the same substance, the “Western Blot ROCK2 (heatmap grade of inhibition)” value in the test with ROCK2 is recorded as 4.
As for “H-D-Arg-D-Tyr-(R)-Agl-D-Val-D-Glu-D-Leu-D-Ala-NH2 [[(3R)-Agl^3]-1]”, in the test on IL-1β, the “qPCR IL-1β (heatmap grade of inhibition)” value stood at 4. Further, in the test on p38 MAPK, the “Western Blot p38 (heatmap grade of inhibition)” value came to 0 and the “Inhibition of IL-1β-induced p38 phosphorylation” value was “inactive”. Moreover, the “Western Blot JNK (heatmap grade of inhibition)” value in the test on JNK is recorded as 4. In the test with ROCK2, the “Western Blot ROCK2 (heatmap grade of inhibition)” value was 0.
In the case of “H-D-Arg-D-Tyr-(S)-Agl-(S)-Val-D-Glu-D-Leu-D-Ala-NH2 [[(3S)-Agl^3-(S)-Val^4]-1]”, in the test on IL-1β, the “Suppression of IL-1β transcription” value is recorded as “ability to suppress the transcription of all three genes was lost” and the “qPCR IL-1β (heatmap grade of inhibition)” value is 1. For the same substance, the “Western Blot p38 (heatmap grade of inhibition)” value in the test on p38 MAPK is reported as 2. Moreover, the “Western Blot JNK (heatmap grade of inhibition)” value in the test with JNK is given as 0. Besides, the “Western Blot ROCK2 (heatmap grade of inhibition)” value in the test with ROCK2 was 3.
Consider “H-D-Arg-D-Tyr-(R)-Agl-(S)-Val-D-Glu-D-Leu-D-Ala-NH2 [[(3R)-Agl^3-(S)-Val^4]-1]”, for which, in the test on IL-1β, the “Suppression of IL-1β transcription” value is on record as “ability to suppress the transcription of all three genes was lost” and the “qPCR IL-1β (heatmap grade of inhibition)” value worked out at 1. For the same substance, in the test on p38 MAPK, the “Western Blot p38 (heatmap grade of inhibition)” value is given as 4 and the “Inhibition of IL-1β-induced p38 phosphorylation” value is “inhibited most effectively”. Further, the “Western Blot JNK (heatmap grade of inhibition)” value in the test on JNK was found to be 0. For the same substance, in the test with ROCK2, the “Western Blot ROCK2 (heatmap grade of inhibition)” value is 2.
Consider “H-D-Arg-D-Tyr-(3R,4S)-Hgl-(S)-Val-D-Glu-D-Leu-D-Ala-NH2 [[(3R,4S)-Hgl^3-(S)-Val^4]-1]”, for which, in the test on IL-1β, the “qPCR IL-1β (heatmap grade of inhibition)” value is reported as 4. Also, the “Western Blot p38 (heatmap grade of inhibition)” value with p38 MAPK was 2. Further, the “Western Blot JNK (heatmap grade of inhibition)” value in the test with JNK is reported as 2. The “Western Blot ROCK2 (heatmap grade of inhibition)” value with ROCK2 was 2.
As to “H-D-Arg-D-Tyr-(3R,4R)-Hgl-D-Val-D-Glu-D-Leu-D-Ala-NH2 [[(3R,4R)-Hgl^3]-1]”, in the test with IL-1β, the “qPCR IL-1β (heatmap grade of inhibition)” value was determined as 4. For the same substance, in the test on p38 MAPK, the “Western Blot p38 (heatmap grade of inhibition)” value worked out at 0 and the “Inhibition of IL-1β-induced p38 phosphorylation” value was “inactive”. In addition, the “Western Blot JNK (heatmap grade of inhibition)” value in the test on JNK was determined as 0. In the test with ROCK2, the “Western Blot ROCK2 (heatmap grade of inhibition)” value amounted to 4.
As to “H-D-Arg-D-Tyr-D-Thr-D-Val-D-Glu-D-Leu-D-Ala-NH2 [Peptide 1]”, in the test with IL-1β, the “Suppression of IL-1β transcription” value is “strong suppression of transcription of all three genes” and the “qPCR IL-1β (heatmap grade of inhibition)” value was 4. For the same substance, in the test with p38 MAPK, the “Western Blot p38 (heatmap grade of inhibition)” value came to 4 and the “Inhibition of IL-1β-induced p38 phosphorylation” value is on record as “inhibited the effects of all three kinases”. For the same substance, the “Western Blot JNK (heatmap grade of inhibition)” value with JNK came to 4. In addition, the “Inhibition of IL-1β-induced JNK phosphorylation” value in the test on JNK (setting [1]) is “inhibited the effects of all three kinases”. The “Western Blot ROCK2 (heatmap grade of inhibition)” value in the test on ROCK2 is given as 4. In addition, the “Inhibition of IL-1β-induced ROCK2 phosphorylation” value with ROCK2 (setting [1]) was “inhibited the effects of all three kinases”.
